Results from patent US11504356B2, “Treatment for inflammatory disease” (REPOS PHARMA AB, priority 2017, dated 2022).

Legend:
[1] = test system: Phospho-ERK 1/2 (p-ERK) in monocytoid THP-1 cells; experiment: p-ERK level in monocytoid THP-1 cells (Bioplex Pro / Luminex MAGPIX); type: cell-based; conditions: for effect on p-ERK levels: 10 μM, 1 hr exposure, monocytoid THP-1 cells, vs DMSO control
Experimental: Monocytoid THP-1 cells were obtained from ATCC (Manassas, Va.) and were cultured in RPMI-1640 medium, supplemented with 10% heat-inactivated fetal bovine serum (HIFBS), 2 mM L-glutamine, 100 U/100 […] penicillin/streptomycin and 0.05 mM 2-mercaptoethanol (all from Sigma, St Louis, Mo.). All cell lines were cultured at 37° C. in a humidified atmosphere containing 5% CO2. Phospho-ERK 1/2 (p-ERK) activity was measured using the Bioplex Pro Cell Signalling assay kit for ERK 1/2 (Biorad) and the Luminex MAGPIX® system according to the manufacturers' instructions. Measurements of p-ERK in CD4+ cells followed the protocol described by Gorelik et al. (J. Immunol. 2007; 179(8):5553-5563). Phosphorylation of ERK by upstream MAPK proteins such as MEK results in activation of ERK. Measurement of p-ERK levels in cells is used as an indicator of ERK signalling. The level of p-ERK in monocytoid THP-1 cells was measured using the Bioplex Pro Cell Signalling assay kit for ERK 1/2 (Biorad) and the Luminex MAGPIX® system. The assay is based on binding of the target of interest via antibodies to magnetic beads. The target is detected using biotinylated antibodies with a fluorescent reporter. The assay was performed according to the manufacturer's instructions. The levels of p-ERK in monocytoid THP-1 cells and PBMC cells were measured using the Bioplex Pro Cell Signalling assay kit for ERK 1/2 (Biorad) and the Luminex MAGPIX® system. The assay is based on binding of the target of interest via antibodies to magnetic beads. The target is detected using biotinylated antibodies with a fluorescent reporter. The assay was performed according to the manufacturer instructions. The levels of the phosphoprotein phospho-ERK (p-ERK) in cell lysates after 1 h exposure to mebendazole (10 μM)), fenbendazole (10 μM) or control (DMSO) in monocytoid THP-1 cells and PMA differentiated THP-1 macrophages was measured using the Luminex MAGPIX® system and the commercially available kit (Biorad, Hercules, Calif.) described above. The assay is based on binding of the target of interest via antibodies to magnetic beads. The target is detected using biotinylated antibodies with a fluorescent reporter. The assays were performed according to the manufacturer's instructions. Briefly, the protein concentrations in the cell lysates were first determined using a Micro-BCA method (ThermoFischer Scientific, Waltham, Mass., USA) to ensure equal amounts of samples in the assay and then measurements were performed by incubating the cell lysate samples with beads, then with detection antibody, and finally with streptavidin-PE. The fluorescence was measured using the MAGPIX instrument (BioRad) and the concentration levels were determined by fitting to a standard curve.

[2] = test system: p-ERK in PMA differentiated THP-1 macrophages; experiment: p-ERK level in PMA differentiated THP-1 macrophages; type: cell-based; conditions: 10 μM, 1 hr exposure, vs DMSO control
Experimental: Phospho-ERK 1/2 (p-ERK) activity was measured using the Bioplex Pro Cell Signalling assay kit for ERK 1/2 (Biorad) and the Luminex MAGPIX® system according to the manufacturers' instructions. Measurements of p-ERK in CD4+ cells followed the protocol described by Gorelik et al. (J. Immunol. 2007; 179(8):5553-5563). The levels of the phosphoprotein phospho-ERK (p-ERK) in cell lysates after 1 h exposure to mebendazole (10 μM)), fenbendazole (10 μM) or control (DMSO) in monocytoid THP-1 cells and PMA differentiated THP-1 macrophages was measured using the Luminex MAGPIX® system and the commercially available kit (Biorad, Hercules, Calif.) described above. The assay is based on binding of the target of interest via antibodies to magnetic beads. The target is detected using biotinylated antibodies with a fluorescent reporter. The assays were performed according to the manufacturer's instructions. Briefly, the protein concentrations in the cell lysates were first determined using a Micro-BCA method (ThermoFischer Scientific, Waltham, Mass., USA) to ensure equal amounts of samples in the assay and then measurements were performed by incubating the cell lysate samples with beads, then with detection antibody, and finally with streptavidin-PE. The fluorescence was measured using the MAGPIX instrument (BioRad) and the concentration levels were determined by fitting to a standard curve.

[3] = test system: p-ERK in PBMC cells; experiment: p-ERK level in peripheral blood mononuclear cells (PBMC); type: cell-based; conditions: PBMCs, FIG. 3b
Experimental: Peripheral blood mononuclear cells (PBMCs) from healthy donors were isolated by 1.077 g/ml Ficoll-Paque centrifugation and cryopreserved as described by Larsson et al. (Int J Cancer 1992; 50: 177-185). Cell viability was determined by trypan blue exclusion test. SLE PBMCs were obtained Astarte Biologics, WA, USA (cat no 1035, lot 3429DE16) in cryopreserved vials (10 million cells). CD4+ cells were subsequently isolated with an autoMACS® instrument and a CD4+ isolation kit from Miltenyi Biotec according to the manufacturer's description and the method described by Gorelik et al. (J. Immunol. 2007; 179(8):5553-5563). Phospho-ERK 1/2 (p-ERK) activity was measured using the Bioplex Pro Cell Signalling assay kit for ERK 1/2 (Biorad) and the Luminex MAGPIX® system according to the manufacturers' instructions. Measurements of p-ERK in CD4+ cells followed the protocol described by Gorelik et al. (J. Immunol. 2007; 179(8):5553-5563). The levels of p-ERK in monocytoid THP-1 cells and PBMC cells were measured using the Bioplex Pro Cell Signalling assay kit for ERK 1/2 (Biorad) and the Luminex MAGPIX® system. The assay is based on binding of the target of interest via antibodies to magnetic beads. The target is detected using biotinylated antibodies with a fluorescent reporter. The assay was performed according to the manufacturer instructions.

[4] = test system: p-ERK in CD4+ T-cells from SLE patient; experiment: p-ERK in CD4+ T-cells isolated from PBMCs from an SLE patient; type: cell-based, human; conditions: 10 μM and 30 μM
Experimental: Peripheral blood mononuclear cells (PBMCs) from healthy donors were isolated by 1.077 g/ml Ficoll-Paque centrifugation and cryopreserved as described by Larsson et al. (Int J Cancer 1992; 50: 177-185). Cell viability was determined by trypan blue exclusion test. SLE PBMCs were obtained Astarte Biologics, WA, USA (cat no 1035, lot 3429DE16) in cryopreserved vials (10 million cells). CD4+ cells were subsequently isolated with an autoMACS® instrument and a CD4+ isolation kit from Miltenyi Biotec according to the manufacturer's description and the method described by Gorelik et al. (J. Immunol. 2007; 179(8):5553-5563). Phospho-ERK 1/2 (p-ERK) activity was measured using the Bioplex Pro Cell Signalling assay kit for ERK 1/2 (Biorad) and the Luminex MAGPIX® system according to the manufacturers' instructions. Measurements of p-ERK in CD4+ cells followed the protocol described by Gorelik et al. (J. Immunol. 2007; 179(8):5553-5563). CD4+ T-Cells were isolated from PBMCs obtained from the venous blood of healthy donors and patients with SLE using the method described in Gorelik et al. (J. Immunol. 2007; 179(8):5553-5563). The level of p-ERK in the isolated CD4+ T-Cells was measured using the Bioplex Pro Cell Signalling assay kit for ERK 1/2 (Biorad) and the Luminex MAGPIX® system.

[5] = Treatment of sarcoidosis patient, PET/CT examination; type: in vivo, human; conditions: one patient, 200 mg daily for six days then 400 mg daily (2×200 mg), after six weeks
Experimental: A daily dose of 200 mg (given as 2×100 mg) of mebendazole was administered for six consecutive days.

[6] = Serum mebendazole concentration in treated patient; type: in vivo; conditions: human, 400 mg daily (2×200 mg), daily dose 400 mg (2×200 mg), after six weeks
Experimental: The serum mebendazole concentration at this time point was 71 ng/ml.

[7] = test system: anti-(double stranded)-DNA antibodies in serum of NZBNZWF1 mice; experiment: In vivo efficacy study in SLE model, NZBNZWF1 mice, serum anti-dsDNA antibodies
Experimental: 40 female NZBNZWF1 mice (Envigo Europe) were fed and watered ad libitum and acclimatised for approximately 1 week before initiation of the experiment. Mice were 14 weeks old at the initiation of the experiment, and 16 weeks are the start of treatment. The mice were divided into 4 treatment groups of 10 mice each at the initiation of the experiment: • 1. Vehicle control: treatment with vehicle only • 2. Positive control: treatment with methotrexate (15 mg/kg) • 3. […] The positive control treatment of 15 mg/kg methotrexate was administered intraperitoneally 3 times per week for 8 weeks (weeks 16-24 of age of the mice). […] Serum was collected from all mice at initiation of the experiment (mice age 14 weeks), at start of treatment (mice age 16 weeks), and every second week during treatment (mice age 18, 20, 22, and 24 weeks), after treatment (mice age 26 and 28 weeks) and at termination (mice age 30 weeks). The serum samples were analysed for levels of antibodies directed against double stranded DNA (dsDNA) (anti-ds-DNA antibodies).

[8] = low-dose (Vermox), 6276 subjects, 39 clinical trials; cited from earlier work
[9] = long-term high-dose (40 mg/kg/day); cited from earlier work

SMILES	effect on p-ERK levels [1]	effect on p-ERK levels [2]	effect on p-ERK levels in THP-1 cells ([1]; FIG. 2, comparison with other tubulin-active agents)	dose dependence of p-ERK level ([1]; THP-1 cells not treated with U0126)	p-ERK fluorescence reading ([1]; THP-1 cells not treated with U0126, 30 μM mebendazole)	p-ERK fluorescence reading ([1]; THP-1 cells not treated with U0126, 1 μm mebendazole)	dose dependence of p-ERK level [3]	p-ERK activity compared with CD4+ T-cells from a healthy donor [4]	PET scan outcome: FDG-signal and size of hilar and mediastinal nodes [5]	concentration at 6 weeks [6] [ng/mL]	concentration of anti-dsDNA antibodies in serum vs vehicle control group or methotrexate positive control group ([7]; 25 mg/kg or 50 mg/kg p.o., 5 days per week, weeks 16-24)	concentration of anti-dsDNA antibodies in serum, higher dose vs lower dose ([7]; 50 mg/kg vs 25 mg/kg p.o.)	subjects with related adverse events [8]	tolerability [9]
COC(=O)Nc1nc2ccc(Sc3ccccc3)cc2[nH]1 [Fenbendazole, fenbendazole]	did not increase	did not increase	–	–	–	–	–	–	–	–	–	–	–	–
COC(=O)Nc1nc2ccc(C(=O)c3ccccc3)cc2[nH]1 [mebendazole, Mebendazole]	significantly increased	significantly increased	significantly increased	increased with an increasing dose	approximately 1200 arb units	approximately 500 arb units	increased with an increasing dose	restored the activity of p-ERK to at least the same level	sarcoidosis in remission	71	lower concentrations	lower concentration	less than 1%	generally well tolerated
